Experiments:
clinical = assay: clinical; design: species or system human; details: in vivo
Method: Blood samples, pre- and post-dose, were collected during the in-house treatment periods for the assessment of PD and PK endpoints. […] In addition, fasting plasma glucose (FPG), insulin, C-peptide, GCG and HOMA-IR after ≥10 hours overnight fast and VAS assessments were done on Days 1, 2 and 3.
In participants with T2DM, blood samples were collected on Days 2, 3 and 4 for assessing PK profiles and for PD profiles, on Days 2 and 3. Fasting plasma glucose (FPG), insulin, C-peptide, GCG and HOMA-IR after ≥10 hours overnight fast on Days 1, 2, 3 and 4. A mixed meal tolerance test (MMTT) and prospective meal consumption (ad libitum meal) was administered on Day 4. Appetite and food intake were assessed using a VAS questionnaire (appetite, hunger and satiety) on Days 1, 2, 3 and 4.

in vivo = details: male, CD-1, mouse, sc
Method: Blood was kept on ice until centrifuged at 4600 rpm for five minutes at 4° C. Plasma was stored at −80° C. until analysis. Compounds were extracted from plasma and quantified against a standard curve using an AB Sciex 7500+LC-MS/MS system (FIG. 5).

Q: Which results are given for `CCCCCCCCCCCCCCCC(=O)N[C@@H](CCC(=O)NCCCC[C@H](NC(=O)[C@H](CO)NC(=O)[C@@H]1CCCN1C(=O)[C@@H]1CCCN1C(=O)[C@@H]1CCCN1C(=O)[C@H](C)NC(=O)CNC(=O)[C@H](CO)NC(=O)[C@H](CO)NC(=O)[C@@H]1CCCN1C(=O)CNC(=O)CNC(=O)[C@H](C)NC(=O)[C@H](CC(C)C)NC(=O)[C@H](CC(C)C)NC(=O)[C@H](Cc1c[nH]c2ccccc12)NC(=O)[C@H](CC(N)=O)NC(=O)[C@@H](NC(=O)[C@H](Cc1ccccc1)NC(=O)[C@H](CCC(=O)O)NC(=O)C(C)(C)NC(=O)[C@H](C)NC(=O)[C@H](C)NC(=O)[C@H](CCC(N)=O)NC(=O)[C@H](CCCCN)NC(=O)[C@H](CC(=O)O)NC(=O)[C@H](CC(C)C)NC(=O)[C@H](Cc1ccc(O)cc1)NC(=O)[C@@H](NC(=O)[C@H](CO)NC(=O)[C@H](Cc1ccc(O)cc1)NC(=O)[C@H](CC(=O)O)NC(=O)[C@H](CO)NC(=O)[C@@H](NC(=O)[C@H](Cc1ccccc1)NC(=O)[C@@H](NC(=O)CNC(=O)[C@H](CCC(=O)O)NC(=O)CSCC(=O)NCCN1CCCCC1=O)[C@@H](C)O)[C@@H](C)O)[C@@H](C)CC)C(C)C)C(N)=O)C(=O)O` [CT-868]?
A: incremental AUC (clinical; human): 128,267 ng/ml*min; terminal half-life (t1/2) (clinical; human): 1,190 minutes; AUC (clinical; human, AUC): 3490 ng·h/mL; AUC (clinical; human, AUC (0-tau)): 3860 ng·h/mL; Cmax (clinical; human, Cmax): 247 ng/mL; Cmax (clinical; human, Maximum Concentration of CT-868 (Cmax)): 274 ng/mL; Tmax (clinical; human, Time of Maximum Concentration of CT-868 (Tmax)): 10.9 h; Tmax (clinical; human, Tmax): 12.2 h; AUC (clinical; human, incremental AUC): 2260 ng·h/mL; half-life (clinical; human, terminal half-life): ~1200 min; half-life (clinical; human, terminal half-life (t1/2)): 1190 min; time at which maximum plasma concentrations were attained post-dose (clinical): 11 to 12 h; AUC(0-inf) (in vivo): 7.92 µM·h; half-life (in vivo): 420 min
